The target of this assay is rabbit muscle actin (Oryctolagus cuniculus, UniProt P68135). In words: microcalorimetry. It is filed as binding.

Each structure is given as a SMILES string.

As a reminder, the Kd is the constant that tells how readily two partners part at equilibrium.

In turn, `O=C(c1ccccc1O)c1[nH]c(Cl)c(Cl)c1-n1c(C(=O)c2ccccc2O)cc(Cl)c1Cl` [compound 6, marinopyrrole A] yielded a Kd of 120 ± 200 nM.
